Read-outs that look alike come from different tables or passages of the source.
Assays:
[1] = clinical; assay type: in vivo, human; details: for AUC(0-t) / Tmax / Cmax: oral, human plasma, mean ± standard error; for AUC(0-t): read-out: AUC0–24h; for Tmax: read-out: Tmax; for Cmax: 0−24 h, read-out: Cmax
Procedure: SPE procedure was conducted to extract and concentrate the (poly)phenolic compounds and their metabolites from the plasma samples. Briefly, plasma samples were thawed on ice and 500 µL plasma was diluted with 1.5 mL of 0.1% formic acid in water with addition of internal standards (2-methylhippuric acid (2 ng/mL), phloridizin (1 ng/mL)) before being loaded on preconditioned SPE cartridges. The cartridges were washed with 0.1% formic acid in water (1 mL) after loading with plasma samples. The elution of the compounds was achieved by 0.1% formic acid in methanol (1 mL) and the eluent was dried under nitrogen gas at room temperature. […] Supernatant was collected in amber HPLC vials before analysis.
The absorption and elimination of 11 major mango metabolites over 24 h was determined after MP, MP + VC, and VC intake. The plasma concentration/area at each time point was determined by the mean of 13 subjects. The time vs. concentration curves and the time vs. area curves were created using GraphPad Prism (version 8.2.1). […] Tmax is the time (h) when Cmax was achieved. Wilcoxon signed-rank test was used for Tmax analysis due to non-normal distribution. Area under the plasma concentration time curve (AUC0−24h, nmol·h/L) was calculated by the linear trapezoidal method using Microsoft Excel 2013, version 15 [63]. […]

[2] = Concentration of (poly)phenolic metabolites in fasting urine at baseline, 24 h after single MP beverage and 15th day after 14-day MP intake (UHPLC-QQQ-MS); details: human, urine, oral
Excerpt: The acute trial was a randomized, 3 arm, within-subject crossover study design (Figure 5A). The trial initiated with 3 days of food record collection to assess background (pre-study) dietary intake followed by counseling to adhere to a diet devoid of mango or its parts and relatively low in polyphenol-rich beverages/foods, which was maintained throughout the duration of the trial. […] In general, subjects were encouraged to follow their “usual” diet with the exception of foods/beverages that may interfere with the outcomes of the study. Food intake diaries and, phone call and email reminders helped subjects maintain compliance throughout the study period. After an initial 7-day run-in period on the limited polyphenol diet, subjects were assigned to a randomization sequence providing 1 of 3 study test beverages (recipes provided in Appendix A, Table A3) on three separate days in a random order: MP (500 g), MP (500 g) + VC (100 mg) or VC (100 mg) beverages. On each study day subjects arrived fasted and well hydrated. After standard admission procedures were completed (e.g., review of compliance with dietary requirements for 3 days prior to study day, dinner meal intake, usual sleep patterns), a catheter was placed by a registered nurse in subjects’ non-dominant arm and a fasting/baseline blood sample was collected (0 h). Subjects were provided with a standard breakfast meal 2 h after the study beverages. The breakfast meal was comprised of a buttermilk biscuit with butter and jelly, and scrambled egg white with shredded white cheddar cheese. After the 6 h blood collection, subjects ate a low polyphenol lunch consisting of dry roasted peanuts and fresh peeled cucumber with ranch dressing (Appendix A, Table A3).
Spot urine samples were collected in urine collection cups, immediately placed on ice and then aliquoted into individual cryovials. All the samples were stored at −80 °C until analysis.
A 14-day feeding trial was conducted with the MP only to study the effect of repetitive intake of MP on (poly)phenolic metabolite profiles. Upon completion of the acute trial, subjects were instructed to continue on the low polyphenolic diet for 2 weeks while consuming MP beverages (provided by CNRC) daily in the morning (250 g MP + 50 g water) and evening (250 g MP + 50 g water). On day 14, subjects consumed both beverages (500 g of MP in total) in the morning and reported to the CNRC on the 15th day after an overnight fast to provide a fasting blood and urine sample (Figure 5B). Blood and urine samples were collected as described above and stored at −80 °C until analysis.
The supernatant was collected and filtered through 0.2 µm polypropylene syringe filter before HPLC analysis.
The ESI conditions were the same as those used in the UHPLC-Q-TOF analysis. The quantification of the compounds was conducted by multiple-reaction monitoring (MRM) transitions. Spectra were recorded in both positive- and negative-ion mode with capillary voltage of 4500 V and drying gas flow rate of 9 L/min at 200 °C. The sheath gas temperature and flow rate were 300 °C and 11 L/min, respectively. Standards were optimized for collision energies, fragmentor voltages and MRM transitions using Mass Hunter Optimizer. The MRM transition for metabolites were created based on the results from UHPLC-Q-TOF-MS. Standards for plasma analysis were prepared in blank plasma (charcoal-stripped human plasma obtained from Bioreclamation IVT) for matrix match and for urine analysis were prepared in SMP.
The flow rate was maintained at 0.4 mL/min and the injection volume was 5 μL. The mobile phase consisted of acidified water (0.1% formic acid) (A) and acidified acetonitrile (0.1% formic acid) (B). The gradient for the separation of compounds was as follows: 5 to 5% B from 0 to 1 min; 10% B at 3 min; 15% B at 7 min; 15% B at 9 min; 20% B at 10 min; 20% B at 11 min; 25% B at 12 min; 30% B at 13 min; 30% B at 14 min; 95% B at 15 min; and back to 5% B at 16 min.

In the case of `O=C(O)c1cc(O)c(O)c(O)c1` [Compound C1, gallic acid], the “time within which absorbed” value ([1]; after acute mango intake) is reported as 1 to 2 h, the “difference in plasma concentrations/areas after MP + VC beverage compared to MP beverage alone” value ([1]; increase observed, statistical outcome) is reported as “not statistically significant” and the AUC(0-t) ([1]; 100 mg, after VC beverage) is reported as 0.0249 ± 0.0019 µM·h. The AUC(0-t) ([1]; 500 g, after MP beverage, linear trapezoidal method) was 0.0645 ± 0.0078 µM·h, the Tmax ([1]; 500 g, after MP beverage) was 2.2 ± 0.4 h and the Cmax ([1]; after MP (mango pulp 500 g) beverage, n = 13) was 20.4 ± 3.1 nM. It also gave a Cmax ([1]; after MP + VC (mango pulp 500 g + vitamin C 100 mg) beverage) of 21.1 ± 3.9 nM, a Cmax ([1]; after VC (vitamin C 100 mg) beverage) of 5.3 ± 1.3 nM and an AUC(0-t) ([1]; after MP + VC beverage) of 0.0628 ± 0.0069 µM·h. For the same compound, the Tmax ([1]; after MP + VC beverage) was 2 ± 0.3 h, the concentration at 15 day [2] was 100 nM and the concentration at 0 h ([2]; 500 g) was 200 nM. For the same compound, the concentration at 24 h ([2]; 500 g) was 200 nM.

— PMC7728344, “Pharmacokinetic Characterization of (Poly)phenolic Metabolites in Human Plasma and Urine after Acute and Short-Term Daily Consumption of Mango Pulp” (Molecules, 2020)
